Target: T1, Sav2152 (Staphylococcus aureus, UniProt A0A0H3JWK0)
T1 construct: monomer; C-terminus (res. 234-285) disordered in crystal
Experiment: EnzChek phosphatase assay, DiFMU release
Type: biochemical
Settings: 100 uM DiFMUP, 10 uM protein, 1 mM Mg2+, 100 mM NaCl, 25 mM Tris-HCl pH 7.0

T1 sequence (A0A0H3JWK0 entry or part of it): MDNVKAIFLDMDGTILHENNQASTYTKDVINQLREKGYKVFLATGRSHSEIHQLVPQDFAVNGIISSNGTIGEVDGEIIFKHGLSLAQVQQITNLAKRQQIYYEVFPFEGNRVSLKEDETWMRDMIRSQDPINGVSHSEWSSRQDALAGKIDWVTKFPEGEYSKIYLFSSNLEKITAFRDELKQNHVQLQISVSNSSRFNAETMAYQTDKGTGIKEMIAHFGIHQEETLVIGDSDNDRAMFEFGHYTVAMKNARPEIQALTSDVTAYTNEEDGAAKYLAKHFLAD

Cc1cc(=O)oc2c(F)c(OP(=O)(O)O)c(F)cc12 [DiFMUP]
EnzChek phosphatase assay, DiFMU release: enzymatic activity of this protein was investigated using a simple phosphatase assay kit with DiFMUP

Source: publication PMC11084212, “Nontraditional Roles of Magnesium Ions in Modulating Sav2152: Insight from a Haloacid Dehalogenase-like Superfamily Phosphatase from Staphylococcus aureus” (International Journal of Molecular Sciences, 2024)
